Legend:
Type in all cases: cell-based
AMD1 = molecular target: T1, AMD1 (Homo sapiens, UniProt P17707); assay: probe labelling of E. coli cells expressing the protein; details: probe 1 3 mM or probe 2 1 mM, 37° C., 0.5 hour
T1 construct: made in house; host or cells: E. coli (intact cells treated with probe)
Procedure: Induced overnight cultures expressing each protein were resuspended in serum-free DMEM supplemented with 10 mM Na-HEPES buffer (pH 7.5) such that the final OD600 was ˜10. The probes were added to the cells (3 and 1 mM, respectively, for 1 and 2) and incubated at 37° C. for 0.5 hour. Note that these are the same conditions used for treatment of mammalian cells. The cells were pelleted (16,000 g, 3 min, 4° C.), washed with PBS (2×1 mL), and resuspended in HEPES buffer or PBS maintaining the same initial volume. Cells were lysed by sonication, debris was pelleted, soluble protein was diluted to 0.5 mg/mL with PBS and probe-labelled proteins were conjugated to rhodamine-azide and visualized as described above in Example 2.

[1] = molecular target: T2, CTSZ Cathepsin Z (Q9UBR2) (Homo sapiens, UniProt Q9UBR2); assay: SILAC RP-ABPP; details: SILAC H/L, MDA-MB-231
T2 construct: In Situ Labelling of Cells with Hydrazine Probes for MS Experiments; endogenous in cells; host or cells: HEK293T and MDA-MB-231
T2 sequence (Q9UBR2 62-303): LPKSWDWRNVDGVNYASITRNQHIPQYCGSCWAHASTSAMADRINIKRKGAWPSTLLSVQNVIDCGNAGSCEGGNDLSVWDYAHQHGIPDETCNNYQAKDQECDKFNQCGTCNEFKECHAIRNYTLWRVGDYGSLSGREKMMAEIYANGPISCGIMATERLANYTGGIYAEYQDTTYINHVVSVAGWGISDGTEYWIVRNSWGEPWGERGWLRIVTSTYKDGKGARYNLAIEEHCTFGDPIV
Procedure: (§1) For MS-based experiments, labelling was performed in a similar manner as described above in Example 2, maintaining the same concentrations of probes. Modifications to this protocol included using isotopically ‘light’ and ‘heavy’ SILAC cells that were also grown to near complete confluence prior to treatment. Isotopically light cells were treated with the non-clickable hydrazine probe (at the same concentration as the probe in ‘enrichment’ experiments) or the probe in the presence of 10-fold excess non-clickable hydrazine probe as a competitor (in ‘competition’ experiments). Isotopically heavy cells were treated with the probe for both types of experiments. These treatments were performed in non-SILAC media. Following treatments, cells were washed with cold PBS to remove the probe-containing media, harvested by scraping, collected by centrifugation (1,400 g, 3 min, 4° C.), washed again by resuspension in cold PBS and frozen as pellets at −80° C. until use.
(§2) The fractionated equimolar mixture of heavy and light soluble proteomes (1-1.5 mg) was diluted to 1 mL in PBS. Click reactions were scaled accordingly (except for biotin-azide) to maintain final concentrations of 0.1 mM TBTA, 1 mM CuSO4, 100 μM biotin-azide (10 mM in DMSO) and 1 mM TCEP. The mixture was vortexed and placed on a rotator at ambient temperature for 1 hour. Sequential addition of and mixture with pre-chilled methanol (MeOH, 2 mL), chloroform (CHCl3, 0.5 mL) and PBS (1 mL) on ice quenched the reaction. The precipitated proteome was centrifuged (5,000 g, 10 min, 4° C.) to fractionate the protein interphase from the organic and aqueous solvent layers. The protein pellet was washed with cold 1:1 MeOH:CHCl3 (3×1 mL), mildly sonicated in cold 4:1 MeOH:CHCl3 (2.5 mL) and pelleted once more by centrifugation (5,000 g, 10 min, 4° C.) to ensure click reagents were efficiently removed.
(§3) Heavy and light parent ion chromatograms associated with successfully identified peptides were extracted and compared using CIMAGE software as previously described^69. At least one ion of a co-eluting heavy-light pair must be accurately identified from a fragmentation event that occurred within the retention time window (±10 min) of parent ion elution. To ensure that the correct pair of peaks is quantified, chromatograms are extracted within a 10 ppm error tolerance of the predicted m/z, the signal-to-noise ratio must be >2.5 and the ‘co-elution correlation score’ and ‘envelope correlation score’ must have R^2 values ≥0.8. In addition, peptides detected as ‘singletons,’ where only the heavy ion of a peptide pair was identified, but for which passed all other filtering parameters, are given a default assigned ratio of ‘20,’ which is defined as any measured ratio that is ≥20.
(§4) To further eliminate false positives and any stochastic variability in the data, protein ratios were then determined by the median peptide ratio derived from three or more unique quantified peptides. Protein ratios that complied with these criteria from a single experiment were then averaged with ratios acquired from ≥3 replicates to provide final values for each type of experiment in both cell lines with both probes. […] Most importantly, there are no robustly measured ratios for proteins identified as probe 1 targets that had measured ratios of ˜1 with probe 2. Probe targets in HEK293T and MDA-MB-231 cells represent data combined from ≥3 independent biological replicates with each cell type performed with several independent batches of synthesized probes over a period of almost two years. […]

[2] = molecular target: T3, LEPRE1 Prolyl 3hydroxylase 1 (Q32P28) (Homo sapiens, UniProt Q32P28); assay: SILAC RP-ABPP; details: SILAC H/L, MDA-MB-231
T3 construct: In Situ Labelling of Cells with Hydrazine Probes for MS Experiments; endogenous in cells
T3 sequence (Q32P28 23-736): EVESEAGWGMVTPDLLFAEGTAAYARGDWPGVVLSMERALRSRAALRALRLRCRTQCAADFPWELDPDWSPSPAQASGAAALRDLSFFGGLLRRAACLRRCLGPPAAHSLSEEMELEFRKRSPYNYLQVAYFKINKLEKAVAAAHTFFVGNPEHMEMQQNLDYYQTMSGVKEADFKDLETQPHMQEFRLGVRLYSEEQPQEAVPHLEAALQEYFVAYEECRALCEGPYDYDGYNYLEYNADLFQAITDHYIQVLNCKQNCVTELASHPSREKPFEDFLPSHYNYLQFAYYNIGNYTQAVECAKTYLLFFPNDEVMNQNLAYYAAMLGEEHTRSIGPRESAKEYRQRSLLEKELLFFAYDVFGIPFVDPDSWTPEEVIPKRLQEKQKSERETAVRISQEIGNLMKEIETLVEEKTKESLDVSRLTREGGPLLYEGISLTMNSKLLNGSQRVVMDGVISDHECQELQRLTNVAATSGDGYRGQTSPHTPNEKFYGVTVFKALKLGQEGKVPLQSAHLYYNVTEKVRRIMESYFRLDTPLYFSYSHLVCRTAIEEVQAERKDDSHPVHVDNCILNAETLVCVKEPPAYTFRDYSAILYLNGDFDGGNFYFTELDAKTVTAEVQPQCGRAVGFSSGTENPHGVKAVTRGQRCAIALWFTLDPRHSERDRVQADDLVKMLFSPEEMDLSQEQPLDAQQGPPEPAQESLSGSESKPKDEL
Procedure: as §1, §2, §3, §4

T1 sequence (P17707 68-334): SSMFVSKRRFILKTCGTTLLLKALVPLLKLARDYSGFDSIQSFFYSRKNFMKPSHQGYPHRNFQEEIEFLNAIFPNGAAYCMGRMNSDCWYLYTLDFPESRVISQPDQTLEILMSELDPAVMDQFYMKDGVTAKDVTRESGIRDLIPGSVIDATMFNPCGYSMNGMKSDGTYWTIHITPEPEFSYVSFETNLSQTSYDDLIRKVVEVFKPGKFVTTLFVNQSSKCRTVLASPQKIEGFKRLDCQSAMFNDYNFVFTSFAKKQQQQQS
T1 sequence (P17707 2-67): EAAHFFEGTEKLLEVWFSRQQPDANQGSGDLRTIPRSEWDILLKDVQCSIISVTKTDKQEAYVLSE

enrichment ratioavg ([1]; probe 2 1 mM 0.5 h vs probe 4) | competition ratioavg ([1]; probe 2 vs probe 2+10x probe 4) | enrichment ratioavg ([2]; probe 2 1 mM 0.5 h vs probe 4) | competition ratioavg ([2]; probe 2 vs probe 2+10x probe 4) | Compound | probe labelling of protein expressed in E. coli (AMD1) | enrichment ratioavg ([1]; probe 1 3 mM 0.5 h vs probe 3) | competition ratioavg ([1]; probe 1 vs probe 1+10x probe 3) | enrichment ratioavg ([2]; probe 1 3 mM 0.5 h vs probe 3) | competition ratioavg ([2]; probe 1 vs probe 1+10x probe 3)
– | – | – | – | C#CCNN.Cl [probe 1, prop-2-yn-1-ylhydrazine hydrochloride] | reacts well | 13 | 3 | 8 | 3
19 | 5 | 8 | 2 | C#CCCNC(=O)c1ccc(NN)cc1.Cl [probe 2, N-(but-3-yn-1-yl)-4-hydrazinylbenzamide hydrochloride] | reacts well | – | – | – | –

— patent publication US11226337B2, “Chemoproteomic profiling of protein electrophilic and oxidative post-translational modifications” (Zenagem, LLC, priority 2017, dated 2022)
